Earlier results, collected in US10471038B2, “Inhibitor of muscle damage or muscle fatigue” ([…] LABORATORY, CO., LTD., priority 2015, dated 2019).

System: calpain
Settings: mdx mice, intramuscular injection

Compound: CC(=O)N[C@@H](CC(C)C)C(=O)N[C@@H](CC(C)C)C(=O)N[C@H](C=O)CCCNC(=N)N [leupeptin]
- activation of calpain in muscle tissue and muscle breakdown: inhibited
